Consider 52 molecules from patent publication USRE47221E1, “Tricyclic compounds” (AbbVie Inc., priority 2009, dated 2019).

One may read the IC50 as the concentration at which inhibition is half-maximal. High values mean lower potency, low ones higher potency.

Where a name gives a salt, the structure may show the parent alone.

The target of the assay is T1, Jak3 (Homo sapiens, UniProt P52333).
T1 construct: Jak3 enzyme (aa 811-1103); expressed in SF9 cells as a GST fusion; GST; made in house; host or cells: SF9 insect cells
T1 sequence (P52333 811-1103): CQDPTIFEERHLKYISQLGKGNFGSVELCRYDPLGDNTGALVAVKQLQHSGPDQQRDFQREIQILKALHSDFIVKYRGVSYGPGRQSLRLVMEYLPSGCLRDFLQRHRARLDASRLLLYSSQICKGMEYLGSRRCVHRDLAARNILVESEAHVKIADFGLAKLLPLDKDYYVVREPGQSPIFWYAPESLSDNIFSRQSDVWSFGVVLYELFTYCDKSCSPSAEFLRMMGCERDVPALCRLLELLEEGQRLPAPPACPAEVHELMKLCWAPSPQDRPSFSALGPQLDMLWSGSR
The assay can be described thus: Jak3 enzyme data for selected compounds. Type of assay: biochemical.
In the case of `CC[C@@H]1C[C@H](NS(=O)(=O)C2(CC)CC2)C[C@@H]1c1nnc2cnc3[nH]ccc3n12` [D.1.82], the IC50 lay within 100 to 1000 nM.
As for `CCC1(S(=O)(=O)N[C@H]2C[C@@H](C)[C@@H](c3ncc4cnc5[nH]ccc5n34)C2)CC1` [D.1.83], the half-maximal inhibitory concentration (IC50) is < 100 nM.
The molecule `CCCCC1(S(=O)(=O)N[C@H]2C[C@@H](CC)[C@@H](c3nnc4cnc5[nH]ccc5n34)C2)CC1` [D.1.84] showed an IC50 of 100 to 1000 nM.
For `CC[C@@H]1C[C@H](NS(=O)(=O)N2CC(C#N)C2)C[C@@H]1c1nnc2cnc3[nH]ccc3n12` [D.2.5] the value was 100 to 1000 nM; for `C[C@@H]1C[C@H](Nc2cccc(C#N)c2)C[C@@H]1c1nnc2cnc3[nH]ccc3n12` [D.2.6], > 1000 nM; for `CC[C@@H]1C[C@H](Nc2cnc(C#N)cn2)C[C@@H]1c1nnc2cnc3[nH]ccc3n12` [D.2.11], 100 to 1000 nM.
Take `CC[C@@H]1C[C@H](Nc2cnc(C#N)cn2)C[C@@H]1c1ncc2cnc3[nH]ccc3n12` [D.2.13]: the IC50 was < 100 nM.
`N#Cc1cnc(NC[C@H]2CC[C@@H](c3ncc4cnc5[nH]ccc5n34)C2)cn1` [D.2.15] gave an IC50 of 100 to 1000 nM.
For `CC[C@@H]1C[C@H](Nc2ccc(C#N)cn2)C[C@@H]1c1nnc2cnc3[nH]ccc3n12` [D.2.19] the value was 100 to 1000 nM; for `C[C@@H]1C[C@H](Nc2cnc(C#N)cn2)C[C@@H]1c1ncc2cnc3[nH]ccc3n12` [D.2.21], 100 to 1000 nM.
As for `N#Cc1ccnc(NC[C@H]2CC[C@@H](c3nnc4cnc5[nH]ccc5n34)C2)c1` [D.2.23], the IC50 is > 1000 nM.
The result for `CC[C@@H]1C[C@@H](Oc2ccc(C#N)cc2)C[C@@H]1c1ncc2cnc3[nH]ccc3n12` [D.2.24] reads < 100 nM.
As to `C[C@@H]1CCN(S(=O)(=O)N2CCCC2)C[C@@H]1c1ncc2cnc3[nH]ccc3n12` [DD.1.1], the half-inhibitory concentration (IC50) is < 100 nM.
The result for `O=C(C1CC(F)(F)C1)N1CCC[C@@H](c2cnc3cnc4[nH]ccc4n23)C1` [Example #3, (R)-(3-(3H-imidazo[1,2-a]pyrrolo[2,3-e]pyrazin-8-yl)piperidin-1-yl)(3,3-difluorocyclobutyl)methanone] reads < 100 nM; that for `CC[C@@H]1C[C@@H](Oc2ccc(C#N)cc2)C[C@@H]1c1nnc2cnc3[nH]ccc3n12` [Example #4, 4-((1R,3R,4S)-3-ethyl-4-(6H-pyrrolo[2,3-e][1,2,4]triazolo[4,3-a]pyrazin-1-yl)cyclopentyloxy)benzonitrile], < 100 nM.
For `C[C@@H]1CCN(C(=NC#N)N2CCCC2)C[C@@H]1c1ncc2cnc3[nH]ccc3n12` [Example #5, N-(((3R,4R)-3-(6H-imidazo[1,5-a]pyrrolo[2,3-e]pyrazin-1-yl)-4-methylpiperidin-1-yl)(pyrrolidin-1-yl)methylene)cyanamide] the value was 100 to 1000 nM.
The result for `O=C(N1CCC(F)(F)CC1)N1CCC[C@@H](c2ncc3cnc4[nH]ccc4n23)C1` [Example #6, (R)-(3-(6H-imidazo[1,5-a]pyrrolo[2,3-e]pyrazin-1-yl)piperidin-1-yl)(4,4-difluoropiperidin-1-yl)methanone] reads 100 to 1000 nM; that for `CC[C@@H]1C[C@H](Nc2ncc(C#N)s2)C[C@@H]1c1nnc2cnc3[nH]ccc3n12` [Example #8, 2-((1S,3R,4S)-3-ethyl-4-(6H-pyrrolo[2,3-e][1,2,4]triazolo[4,3-a]pyrazin-1-yl)cyclopentylamino)thiazole-5-carbonitrile], 100 to 1000 nM.
In turn, `O=S(=O)(NC12CCC(c3nnc4cnc5[nH]ccc5n34)(CC1)CC2)N1CCCC1` [Example #9, N-(4-(6H-pyrrolo[2,3-e][1,2,4]triazolo[4,3-a]pyrazin-1-yl)bicyclo[2.2.2]octan-1-yl)pyrrolidine-1-sulfonamide] had an IC50 of 100 to 1000 nM.
Regarding `CC[C@@H]1C[C@H](NS(=O)(=O)C2CC2)C[C@@H]1c1nc(CCCO)c2cnc3[nH]ccc3n12` [Example #14, N-((1S,3R,4S)-3-ethyl-4-(3-(3-hydroxypropyl)-6H-imidazo[1,5-a]pyrrolo[2,3-e]pyrazin-1-yl)cyclopentyl)cyclopropanesulfonamide], the concentration for half-maximal inhibition (IC50) is < 100 nM.
The result for `CC[C@@H]1C[C@H](NS(=O)(=O)C2CC2)C[C@@H]1c1nc(CO)c2cnc3[nH]ccc3n12` [Example #17, N-((1S,3R,4S)-3-ethyl-4-(3-(hydroxymethyl)-6H-imidazo[1,5-a]pyrrolo[2,3-e]pyrazin-1-yl)cyclopentyl)cyclopropanesulfonamide] reads < 100 nM; that for `CC[C@@H]1C[C@H](NS(=O)(=O)C2CC2)C[C@@H]1c1nc(CCO)c2cnc3[nH]ccc3n12` [Example #18, N-((1S,3R,4S)-3-ethyl-4-(3-(2-hydroxyethyl)-6H-imidazo[1,5-a]pyrrolo[2,3-e]pyrazin-1-yl)cyclopentyl)cyclopropanesulfonamide], 100 to 1000 nM.
The result for `c1cc2c(ncc3ncn(C4CCCCC4)c32)[nH]1` [Example #21, 1-cyclohexyl-1,6-dihydroimidazo[4,5-d]pyrrolo[2,3-b]pyridine] reads 100 to 1000 nM; that for `CC[C@@H]1C[C@H](OC2CCOCC2)C[C@@H]1c1nnc2cnc3[nH]ccc3n12` [Example #22, 1-((1S,2R,4S)-2-ethyl-4-(tetrahydro-2H-pyran-4-yloxy)cyclopentyl)-6H-pyrrolo[2,3-e][1,2,4]triazolo[4,3-a]pyrazine], > 1000 nM; that for `CC[C@@H]1C[C@H](Nc2cnc(C#N)cn2)CN1c1ncc2cnc3[nH]ccc3n12` [Example #26, 5-((3S,5R)-5-ethyl-1-(6H-imidazo[1,5-a]pyrrolo[2,3-e]pyrazin-1-yl)pyrrolidin-3-ylamino)pyrazine-2-carbonitrile oxalate], 100 to 1000 nM.
The result for `CC[C@@H]1C[C@H](NS(=O)(=O)CCC(F)(F)F)CN1c1ncc2cnc3[nH]ccc3n12` [Example #27, N-((3S,5R)-5-ethyl-1-(6H-imidazo[1,5-a]pyrrolo[2,3-e]pyrazin-1-yl)pyrrolidin-3-yl)-3,3,3-trifluoropropane-1-sulfonamide] reads > 1000 nM; that for `c1cc2c3c(cnc2[nH]1)CCCN3C1CCCCC1` [Example #28, 1-cyclohexyl-2,3,4,7-tetrahydro-1H-pyrrolo[2,3-h][1,6]naphthyridine], > 1000 nM; that for `O=S(=O)(NC12CCC(c3n[nH]c4cnc5[nH]ccc5c34)(CC1)CC2)C1CC1` [Example #29, N-(4-(3,6-dihydropyrazolo[4,3-d]pyrrolo[2,3-b]pyridin-1-yl)bicyclo[2.2.2]octan-1-yl)cyclopropanesulfonamide], < 100 nM.
Molecule `CC[C@@H]1C[C@H](N(C#N)S(=O)(=O)C2CC2)C[C@@H]1c1nnc2cnc3[nH]ccc3n12` [Example #32, N-cyano-N-((1S,3R,4S)-3-ethyl-4-(6H-pyrrolo[2,3-e][1,2,4]triazolo[4,3-a]pyrazin-1-yl)cyclopentyl)cyclopropanesulfonamide] came in with a 50% inhibitory concentration (IC50) of 100 to 1000 nM.
For `C[C@@H]1CCN(C(=O)C2CCC(F)(F)CC2)C[C@@H]1c1ncc2cnc3[nH]ccc3n12` [H.1.1] the value was < 100 nM.
The result for `C[C@@H]1CCN(C(=O)CC(F)(F)F)C[C@@H]1c1ncc2cnc3[nH]ccc3n12` [H.1.2] reads < 100 nM; that for `C#CCCC(=O)N1CC[C@@H](C)[C@@H](c2ncc3cnc4[nH]ccc4n23)C1` [H.1.6], < 100 nM.
For `C[C@@H]1CCN(C(=O)CCc2cc(Cl)no2)C[C@@H]1c1ncc2cnc3[nH]ccc3n12` [H.1.10] the value was < 100 nM; for `C[C@@H]1CCN(C(=O)C2CC(F)(F)C2)C[C@@H]1c1ncc2cnc3[nH]ccc3n12` [H.1.21], < 100 nM; for `C[C@@H]1CCN(C(=O)CCC#N)C[C@@H]1c1ncc2cnc3[nH]ccc3n12` [H.1.25], < 100 nM.
In the case of `O=C(C1CC(F)(F)C1)N1CCC[C@@H](c2ncc3cnc4[nH]ccc4n23)C1` [H.4.1], the half-maximal inhibitory concentration (IC50) fell in the range of 100 to 1000 nM.
Take `C[C@@H]1CCN(C(=O)N2CCCCC2)C[C@@H]1c1ncc2cnc3[nH]ccc3n12` [I.1.1, ((3R,4R)-3-(6H-imidazo[1,5-a]pyrrolo[2,3-e]pyrazin-1-yl)-4-methylpiperidin-1-yl)(piperidin-1-yl)methanone]: the IC50 was < 100 nM.
For `C[C@@H]1CCN(C(=O)N2CCOCC2)C[C@@H]1c1ncc2cnc3[nH]ccc3n12` [I.1.2] the value was < 100 nM; for `O=C(N1CCCC1)N1CCC[C@@H](c2ncc3cnc4[nH]ccc4n23)C1` [I.3.1], 100 to 1000 nM; for `C[C@@H]1CCN(C(=O)N2CCC[C@@H]2C#N)C[C@@H]1c1ncc2cnc3[nH]ccc3n12` [J.2.2], < 100 nM.
For `C[C@@H]1CCN(C(=O)N2CCC[C@H]2C#N)C[C@@H]1c1ncc2cnc3[nH]ccc3n12` [J.2.3] the value was < 100 nM; for `C[C@@H]1CCN(C(=O)N2CC(F)(F)C2)C[C@@H]1c1ncc2cnc3[nH]ccc3n12` [J.2.5], < 100 nM; for `C[C@@H]1CCN(C(=O)N2CCC2)C[C@@H]1c1ncc2cnc3[nH]ccc3n12` [J.2.6], < 100 nM.
As for `C[C@@H]1CCN(C(=O)N2CC[C@@H](F)C2)C[C@@H]1c1ncc2cnc3[nH]ccc3n12` [J.2.7], the IC50 was < 100 nM.
The result for `C[C@@H]1CCN(C(=O)N2CCC(F)(F)C2)C[C@@H]1c1ncc2cnc3[nH]ccc3n12` [J.2.8] reads < 100 nM; that for `C[C@@H]1CCN(C(=O)N2CCC[C@@H]2CO)C[C@@H]1c1ncc2cnc3[nH]ccc3n12` [J.2.9], < 100 nM; that for `C[C@@H]1CCN(C(=O)N2CC(F)C2)C[C@@H]1c1ncc2cnc3[nH]ccc3n12` [J.2.11], < 100 nM.
With `C[C@@H]1CCN(C(=O)N2CC[C@H](F)C2)C[C@@H]1c1ncc2cnc3[nH]ccc3n12` [J.2.12], the 50% inhibitory concentration (IC50) was < 100 nM.
The result for `C[C@@H]1CCN(C(=O)N2CCC[C@H]2C)C[C@@H]1c1ncc2cnc3[nH]ccc3n12` [J.2.13] reads < 100 nM.
The result for `C[C@@H]1CCN(C(=O)N2CCCCCC2)C[C@@H]1c1ncc2cnc3[nH]ccc3n12` [J.2.14] reads < 100 nM.
As for `C[C@@H]1CCN(C(=O)N2CCC[C@@H]2C(F)(F)F)C[C@@H]1c1ncc2cnc3[nH]ccc3n12` [J.2.15], the IC50 is < 100 nM.
On to `O=C(N1CCC[C@@H](c2ncc3cnc4[nH]ccc4n23)C1)N1CC(F)(F)C1` [J.3.1], for which the IC50 is < 100 nM.
